Measurements from the METLIN SMRT retention time set (Domingo-Almenara et al. 2019).

Assay: gradient 5% acetonitrile 3 min, to 50% in 2 min, to 85% in 15 min, held 3 min, 100 µL/min
Conditions: column: Zorbax Extend-C18 2.1 x 50 mm; eluents: water / acetonitrile, 0.1% formic acid
In short: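 Pure standards were analyzed in mixtures of ~100 molecules using HPLC coupled to a quadrupole time-of-flight mass spectrometer, in both positive and negative ionization mode. Separation used a Zorbax Extend-C18 column (2.1 × 50 mm, 1.8 μm) at 100 μL/min, with water and acetonitrile each containing 0.1% formic acid. Dead and dwell volumes were 40 μL and 900 μL, and data were collected over 3 months. Retention time was read from computationally picked adduct peaks, each inspected manually.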

RP-LC retention time	SMILES
983 s	COCCOC1CCC12CCN(S(=O)(=O)c1ccccc1C)CC2 (stereo unspecified)
830 s	CC(C)CN(C[C@@H](O)[C@H](Cc1ccccc1)NC(=O)O[C@H]1CO[C@H]2OCC[C@H]21)S(=O)(=O)c1ccc(N)cc1
647 s	O=C(CCNc1c(-c2ccc(F)cc2)nc2cnccn12)NCC1CC1
634 s	COC(=O)CN1C(=O)C2CCCN2C(=O)c2ccccc21 (stereo unspecified)
627 s	Cc1c(CN2CCC(N(C(=O)NCCc3ccccc3)C3CCOCC3)CC2)cnn1C
658 s	COc1cccc(Oc2nccnc2N2CCC(C(=O)N3CCN(c4ccccn4)CC3)CC2)c1
964 s	CCN(CC)S(=O)(=O)c1ccc2nc(NCc3ccc4c(c3)OCO4)cnc2c1
1000 s	CCc1cccc(NS(=O)(=O)c2ccc(-c3nnc(C4CCC4)o3)o2)c1
687 s	CCOC(=O)CNC(=O)NC(C)C(=O)N1CCc2ccccc21 (stereo unspecified)
808 s	CCc1ccc(NC(=O)CCS(=O)(=O)c2ccc3c(c2)CCCN3C(C)=O)cc1
633 s	COc1ccc(S(=O)(=O)N(C)CCCC(=O)O)cc1N(C)S(C)(=O)=O
762 s	CCN1C(=O)c2c(C(=O)NCc3cccc(F)c3)ncn2CC1(C)C(=O)NC1CCCC1 (stereo unspecified)
938 s	CCCCNC(=O)c1cn(C)nc1S(=O)(=O)N1CCC(C)CC1
974 s	CCCc1noc(-c2ccnc(-n3ncc(C(=O)N4CCSCC4)c3C)c2)n1
754 s	CC(C)OCCCNC(=O)Cn1c(=O)c2cccn2c2ccc(F)cc21
660 s	O=C(NCCCN1CCC(Cc2ccccc2)CC1)C1CCCN(S(=O)(=O)N2CCOCC2)C1 (stereo unspecified)
705 s	Cc1nc2cc(N3CCCC(C(=O)NCc4ccccc4)C3)cnc2nc1C (stereo unspecified)

The remaining lines, values behind:

SMILES	RP-LC retention time
Nc1c(C(=O)Nc2nc(-c3ccccc3)cs2)sc2nc3c(cc12)CCCCC3	1170 s
COc1cccc(CCC(=O)NC(C)C(=O)Nc2nc3ccccc3[nH]2)c1 (stereo unspecified)	660 s
CNS(=O)(=O)c1cccnc1Nc1cc(C)cc(C)c1	990 s
Cc1nn(-c2ccccc2)c2c1N(CC(=O)N1CCN(c3ccc(F)cc3)CC1)C(=O)CS2	915 s
C[C@H]1CC[C@@H]2[C@@H](C)[C@H]3[C@H](C[C@H]4[C@@H]5CC[C@H]6C[C@@H](O)CC[C@]6(C)[C@H]5CC[C@]34C)N2C1	763 s
Cc1nn2c(CNS(=O)(=O)c3cc(F)cc(F)c3)c(-c3ccccc3)nc2s1	905 s
COc1cccc(N2CCN(C3=Nc4c(F)cccc4[C@H](CC(=O)O)N3c3cc(C(F)(F)F)ccc3OC)CC2)c1	899 s
COc1ccccc1N1CCN(c2ncc3c(n2)CCN(Cc2cccc(C)c2)C3)CC1	705 s
CCc1noc(C2(NC(=O)c3nn(C)c4ccccc34)CCCCC2)n1	1010 s
COc1ccc(-c2nnc(-c3ccc(-n4ccnc4)nc3)o2)c(OC)c1	630 s
CN(C)C(=O)Cn1cnc2ccccc2c1=O	583 s
CC(C)CC(=O)Nc1ccc(-c2nc(-c3ccccc3)co2)cc1	1100 s
CCC(=O)Nc1ccc(CCc2nc3ccc(C(=O)NC(C)Cc4ccco4)cc3[nH]2)cc1 (stereo unspecified)	630 s
COc1ccccc1NC(=O)NC(C)(C)CC(C)(C)C	1010 s
COc1ccccc1OCc1nc(-c2ccc3ncn(C)c3c2)no1	693 s
c1ccc2c(N3CCCCCC3)nnc(-c3nc(C4CC4)no3)c2c1	895 s
COc1ccc(-c2ncc3c(n2)CCN(C(=O)Nc2ccccc2C(F)(F)F)C3)cc1	939 s
Cc1ccn2cc(-c3ccc(NC(=O)c4ccc(Br)cc4)cc3)nc2n1	698 s
Cc1ccc(C)c(Cn2ccn3nc(-c4ccccc4)c(CO)c3c2=O)c1	1030 s
